In US8088828B2, “Treating benign prostate hyperplasia with SARMS” (priority 2002, dated 2012):

Assays:
Assay type in all cases: in vivo, rat
intact male rats = assay: Compound VII 0.5 mg/day in intact male rats, organ weights
[1] = system: intact male Sprague-Dawley rats; assay: Organ weights in intact male rats after 3, 6 or 9 days of daily subcutaneous injections
Procedure: Methods: Male Sprague-Dawley rats were purchased from Harlan Biosciences (Indianapolis, Ind.). The animals were maintained on a 12-h cycle of light and dark with food and water available ad libitum. Male Sprague-Dawley rats weighing 189 to 226 g were randomly distributed into groups of 5 animals. The intact male rats were treated with hydroxy-flutamide (0.5, 1, 5, 10 or 25 mg/kg), finasteride (5 mg/kg), Compound VII (0.5, 1, 5, 10, 25 mg/kg) or vehicle for 3, 6, or 9 days. The drugs were dissolved in DMSO:PEG300 (20:80, v:v) and administered via daily subcutaneous injections, and the dosages were adjusted based on animal's body weight, which was measured on a daily basis. A group of castrated rats (n=5) was also included as control for each time point. […] The organ weights were normalized with the body weights. Percentage changes were determined by comparison to intact animals. Statistical analyses of all the parameters were performed by single-factor ANOVA with the alpha value set a priori at p<0.05.

[2] = system: intact male Sprague-Dawley rats; assay: Prostate weight in intact Sprague-Dawley rats after 7 days of oral gavage
[3] = 3 days, in general over 0.5, 1, 5, 10, 25 mg/kg s.c.
[4] = 9 days, high doses (5, 10, 25 mg/kg) s.c.

With `C[C@](O)(COc1ccc(F)cc1)C(=O)Nc1ccc([N+](=O)[O-])c(C(F)(F)F)c1` [Compound VII] the “effect on levator ani muscle weight” value (intact male rats) was “without affecting”, the prostate weight (intact male rats) was 63 % of that observed in vehicle-treated intact animals and the “effect on levator ani muscle weight” value ([1]; 3 days, 0.5, 1, 5, 10, 25 mg/kg s.c.) was “without affecting”. The “prostate weight (compared to intact animals)” value [1, 3] was 80%, the “seminal vesicle weight (compared to intact animals)” value [1, 3] was 70% and the “changes in levator ani muscle weights” value ([1]; 6 days, 5, 10, 25 mg/kg s.c.) was “none of these doses caused any significant changes”. The “increase of levator ani muscle weight” value ([1]; 9 days, 25 mg/kg s.c.) was 12%, the “prostate weight (compared to intact animals)” value [1, 4] was 50% and the “seminal vesicle weight (compared to intact animals)” value [1, 4] was 45%. The “levator ani muscle weight (compared to intact animals)” value ([1]; 9 days, highest dose group (25 mg/kg) s.c.) was 112%, the “changes in levator ani muscle weights” value ([1]; 9 days, most of the dose groups s.c.) was “no significant changes” and the “atrophy in prostate on increasing the dose 100-fold” value ([2]; 10 mg/kg compared to 1000 mg/kg as printed) was “did not significantly increase”. The “reduction of prostate weight (normalized to body weight) compared to the intact control” value ([2]; all treatment groups, oral gavage once daily for 7 days, p<0.01) was “greater than 48.4%”.
